# Structures can show the parent of a compound that is named as a salt.
# Key:
# [1] = system: constitutive active colorectal cancer cell (CRC) Wnt pathway, HCT116 TOPFlash; assay: Cellular reporter assay, HCT116 Super TopFlash (constitutive active Wnt pathway), luciferase expression; assay type: cell-based; conditions: Homo sapiens, HCT-116, 36 h, HCT116 Super TopFlash reporter cells, 36 hours incubation, dilution series 50 μM to 15 nM
# Outline: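 HCT116 cells stably carrying Super TopFlash (β-catenin ΔS45, constitutive Wnt) run in parallel with FOP control line; compounds 50 μM to 15 nM (3.16-fold) in CAFTY buffer pH 7.4 with 2 mM Ca2+, 0.01% BSA, 36 h at 37 °C. Luciferase luminescence read as Wnt activity.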
# [2] = system: HCT116 FOPFlash; assay: Control reporter assay, HCT116 FOP control vector (non-functional TCF elements), luciferase expression; assay type: cell-based; conditions: Homo sapiens, HCT-116, 36 h, HCT116 FOP control reporter cells, 36 hours incubation, dilution series 50 μM to 15 nM
# Outline: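 Stable HCT116 cells carrying FOP vector (randomized non-functional TCF sites) plus pcDNA3, run in parallel with TOP line; compounds 50 μM to 15 nM (3.16-fold steps) added in CAFTY buffer pH 7.4 with 2 mM Ca2+, 0.01% BSA. Incubated 36 h at 37 °C, 5% CO2; luciferase luminescence read.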
smiles,measurement,setting,value
"O=C(CN1CCOCC1)Nc1cc(C(=O)Nc2nnc(-c3cncnc3)s2)ccc1OC(F)(F)F [Example 69, 3-[(morpholin-4-ylacetyl)amino]-N-[5-(pyrimidin-5-yl)-1,3,4-thiadiazol-2-yl]-4-(trifluoromethoxy)benzamide]",IC50,[1],2.45 µM
same,IC50,[2],≥ 50 µM
"CN1CCN(CC(=O)Nc2cc(C(=O)Nc3nnc(-c4cnccc4C(F)(F)F)s3)ccc2OC(F)(F)F)CC1 [Example 70, 3-{[(4-methylpiperazin-1-yl)acetyl]amino}-4-(trifluoromethoxy)-N-{5-[4-(trifluoromethyl)pyridin-3-yl)-1,3,4-thiadiazol-2-yl}benzamide]",IC50,[1],5.15 µM
same,IC50,[2],≥ 50 µM
"Cc1ccncc1-c1nnc(NC(=O)c2ccc(OC(F)(F)F)c(NC(=O)CN3CCOCC3)c2)s1 [Example 71, N-[5-(4-methylpyridin-3-yl)-1,3,4-thiadiazol-2-yl]-3-[(morpholin-4-ylacetyl)amino]-4-(trifluoromethoxy)benzamide]",IC50,[1],4.66 µM
same,IC50,[2],≥ 50 µM
"O=C(CN1CCOCC1)Nc1cc(C(=O)Nc2nnc(-c3cncnc3)s2)ccc1OC1CC1 [Example 72, 4-(cyclopropyloxy)-3-[(morpholin-4-ylacetyl)amino]-N-[5-(pyrimidin-5-yl)-1,3-4-thiadiazol-2-yl)benzamide]",IC50,[1],1.3 µM
same,IC50,[2],≥ 50 µM
"COCCOc1ccc(C(=O)Nc2nnc(-c3cnccc3C)s2)cc1NC(=O)CN1CCN(C)CC1 [Example 73, 4-(2-methoxyethoxy)-3-{[(4-methylpiperazin-1-yl)acetyl]amino}-N-[5-(4-methylpyridin-3-yl)-1,3,4-thiadiazol-2-yl]benzamide]",IC50,[1],1 µM
same,IC50,[2],≥ 50 µM
"COCCCOc1ccc(C(=O)Nc2nnc(-c3cnccc3C)s2)cc1NC(=O)CN1CCOCC1 [Example 74, 4-(3-methoxypropoxy)-N-[5-(4-methylpyridin-3-yl)-1,3,4-thiadiazol-2-yl)-3-[(morpholin-4-ylacetyl)amino]benzamide]",IC50,[1],3.7 µM
same,IC50,[2],≥ 50 µM
"O=C(CN1CCOCC1)Nc1cc(C(=O)Nc2ccc(-c3cncnc3)cn2)ccc1OC1CC1 [Example 75, 4-(cyclopropyloxy)-3-[(morpholin-4-ylacetyl)amino]-N-[5-(pyrimidin-5-yl)pyridin-2-yl]benzamide]",IC50,[1],0.037 µM
same,IC50,[2],≥ 50 µM
"O=C(CN1CCOCC1)Nc1cc(C(=O)Nc2cnc(-c3cccnc3)s2)ccc1OC1CC1 [Example 76, 4-(cyclopropyloxy)-3-[(morpholin-4-ylacetyl)amino]-N-[2-(pyridin-3-yl)-1,3-thiazol-5-yl]benzamide]",IC50,[1],0.155 µM
same,IC50,[2],≥ 50 µM
"CN1CCN(CC(=O)Nc2cc(C(=O)Nc3nnc(-c4cccnc4)s3)c(F)cc2OC(F)(F)F)CC1 [Example 77, 2-fluoro-5-{[(4-methylpiperazin-1-yl)acetyl]amino}-N-[5-(pyridin-3-yl)-1,3,4-thiadiazol-2-yl]-4-(trifluoromethoxy)benzamide]",IC50,[1],0.18 µM
same,IC50,[2],≥ 50 µM
"Cc1ccncc1-c1nnc(NC(=O)c2cc(NC(=O)CN3CCN(C)CC3)c(OC(F)(F)F)cc2F)s1 [Example 78, 2-fluoro-5-{[(4-methylpiperazin-1-yl)acetyl]amino}-N-[5-(4-methylpyridin-3-yl)-1,3,4-thiadiazol-2-yl]-4-(trifluoromethoxy)benzamide]",IC50,[1],0.24 µM
same,IC50,[2],≥ 50 µM
"Cc1ccncc1-c1nnc(NC(=O)c2ccc(OC3COC3)c(NC(=O)CN3CCOCC3)c2)s1 [Example 79, N-[5-(4-methylpyridin-3-yl)-1,3,4-thiadiazol-2-yl]-3-[(morpholin-4-ylacetyl)amino]-4-(oxetan-3-yloxy)benzamide]",IC50,[1],0.24 µM
same,IC50,[2],≥ 50 µM
"O=C(CN1CCOCC1)Nc1cc(C(=O)Nc2nnc(-c3ccccn3)s2)ccc1OC(F)(F)F [Example 80, 3-[{morpholin-4-ylacetyl)amino]-N-[5-(pyridin-2-yl)-1,3,4-thiadiazol-2-yl]-4-(trifluoromethoxy)benzamide]",IC50,[1],27.5 µM
same,IC50,[2],≥ 50 µM
"O=C(CN1CCOCC1)Nc1cc(C(=O)Nc2nnc(-c3ccncc3)s2)ccc1OC(F)(F)F [Example 81, 3-[(morpholin-4-ylacetyl)amino]-N-[5-(pyridin-4-yl)-1,3,4-thiadiazol-2-yl]-4-(trifluoromethoxy)benzamide]",IC50,[1],≥ 50 µM
same,IC50,[2],≥ 50 µM
"O=C(CN1CCOCC1)Nc1cc(C(=O)Nc2nnc(-c3cccnc3)s2)ccc1OC(F)(F)F [Example 82, 3-[(morpholin-4-ylacetyl)amino]-N-[5-(pyridin-3-yl)-1,3,4-thiadiazol-2-yl]-4-(trifluoromethoxy)benzamide]",IC50,[1],21.2 µM
same,IC50,[2],≥ 50 µM
"CN1CCN(CC(=O)Nc2cc(C(=O)Nc3nnc(-c4ccncc4)s3)ccc2OC(F)(F)F)CC1 [Example 83, 3-{[(4-methylpiperazin-1-yl)acetyl]amino}-N-[5-(pyridin-4-yl)-1,3,4-thiadiazol-2-yl]-4-(trifluoromethoxy)benzamide]",IC50,[1],26.3 µM
same,IC50,[2],≥ 50 µM
"CN1CCN(CC(=O)Nc2cc(C(=O)Nc3nnc(-c4cccnc4)s3)ccc2Cl)CC1 [Example 84, 4-chloro-3-{[(4-methylpiperazin-1-yl)acetyl]amino}-N-[5-(pyridin-3-yl)-1,3,4-thiadiazol-2-yl]benzamide hydrochloride]",IC50,[1],≥ 50 µM
same,IC50,[2],≥ 50 µM
"O=C(Nc1nnc(-c2cccnc2)s1)c1ccc(Cl)c(NC(=O)C2(N3CCN(C4CC4)CC3)CC2)c1 [Example 85, 4-chloro-3-({[1-(4-cyclopropylpiperazin-1-yl)cyclopropyl]carbonyl}amino)-N-[5-(pyridin-3-yl)-1,3,4-thiadiazol-2-yl]benzamide]",IC50,[1],12.5 µM
same,IC50,[2],≥ 50 µM
"O=C(CN1CCN(C2CC2)CC1)Nc1cc(C(=O)Nc2nnc(-c3cccnc3)s2)ccc1Cl [Example 86, 4-chloro-3-{[(4-cyclopropylpiperazin-1-yl)acetyl]amino}-N-[5-(pyridin-3-yl)-1,3,4-thiadiazol-2-yl]benzamide]",IC50,[1],44 µM
same,IC50,[2],≥ 50 µM
"CN1CCN(CC(=O)Nc2cc(C(=O)Nc3nnc(-c4cncnc4)s3)ccc2OC(F)(F)F)CC1 [Example 87, 3-{[(4-methylpiperazin-1-yl)acetyl]amino}-N-[5-(pyrimidin-5-yl)-1,3,4-thiadiazol-2-yl)-4-(trifluoromethoxy)benzamide]",IC50,[1],18 µM
same,IC50,[2],≥ 50 µM
"O=C(CN1CCOCC1)Nc1cc(C(=O)Nc2nnc(-c3cnccn3)s2)ccc1OC(F)(F)F [Example 88, 3-[(morpholin-4-ylacetyl)amino]-N-[5-(pyrazin-2-yl)-1,3,4-thiadiazol-2-yl]-4-(trifluoromethoxy)benzamide]",IC50,[1],≥ 50 µM
same,IC50,[2],≥ 50 µM
"Cc1cccnc1-c1nnc(NC(=O)c2ccc(OC(F)(F)F)c(NC(=O)CN3CCOCC3)c2)s1 [Example 89, N-[5-(3-methylpyridin-2-yl)-1,3,4-thiadiazol-2-yl]-3-[(morpholin-4-ylacetyl)amino]-4-(trifluoromethoxy)benzamide]",IC50,[1],0.845 µM
same,IC50,[2],≥ 50 µM
"CN1CCN(CC(=O)Nc2cc(C(=O)Nc3nnc(-c4ccnc(N)c4)s3)ccc2OC(F)(F)F)CC1 [Example 90, N-[5-(2-aminopyridin-4-yl)-1,3,4-thiadiazol-2-yl]-3-{[(4-methylpiperazin-1-yl)acetyl]amino}-4-(trifluoromethoxy)benzamide]",IC50,[1],7.4 µM
same,IC50,[2],31 µM

# From patent US20170107212A1, “NOVEL COMPOUNDS” (Bayer Pharma Aktiengesellschaft, priority 2014, published 2017)
